Reference: article PMC7826463, “Pamiparib dose escalation in Chinese patients with non‐mucinous high‐grade ovarian cancer or advanced triple‐negative breast cancer” (Cancer Medicine, 2020)
“And” between values parts separate entries of the source, which are not always exact repeats. Equal entries are not always repeated.

Assays:
[1] = tested on: non-mucinous high-grade ovarian cancer (HGOC); assay: Antitumor activity per RECIST v1.1 (best overall response, ORR, CBR, PFS) in patients with HGOC; type: in vivo, human
Method: (§1) Secondary objectives were assessment of PK parameters and antitumor activity. Blood samples for the PK analysis were collected at Cycle 1 on Days 1, 2, and 3. Pharmacokinetic sampling was performed at Cycle 1 on Day 1 (predose and at 0.5, 1, 2, 4, 6, 9, and 12 hours postdose), Day 2, Day 3, and Day 10 (predose and at 0.5, 1, 2, 4, 6, 9, and 12 hours postdose); then at Cycles 2 and 3 on Day 1 (predose and at 2 hours postdose). […] Tumor assessments were performed by the investigators at screening, every 6 weeks after the first dose of pamiparib in the 1st year, and every 12 weeks thereafter until progression, per RECIST v1.1. Patients completed the study at the time of their safety follow‐up visit; therefore, radiological assessment of disease progression was not performed after the safety follow‐up visit. Approximately 14 to 18 evaluable patients were expected to enroll in the phase 1 part of the study. The safety population included all patients who received ≥1 dose of pamiparib. The PK population included all patients for whom valid pamiparib PK parameters could be estimated. Antitumor activity per RECIST v1.1 was assessed in all evaluable patients. […] The population evaluable for CA‐125 response included patients in the safety population with baseline CA‐125 ≥2 x upper limit of normal. Descriptive statistics were used to summarize all study data. Continuous variables included the number of non‐missing observations, mean, standard deviation, median, minimum, and maximum. Categorical variables were summarized by their frequency and percentage. Progression‐free survival was estimated using the Kaplan–Meier method and the corresponding 95% confidence interval (CI) was constructed using Greenwood's formula. Standard PK parameters (i.e., area under the plasma concentration‐time curve [AUC] from time of drug administration; maximum plasma concentration [Cmax]; time to Cmax; elimination half‐life [t1/2]; apparent clearance; and apparent volume of distribution during terminal phase) were estimated and derived using standard non‐compartmental methods.

[2] = tested on: advanced HGOC or TNBC; assay: Progression-free survival, total safety population; type: in vivo, human; conditions: Total (N=15)
Method: Secondary objectives were assessment of PK parameters and antitumor activity. Blood samples for the PK analysis were collected at Cycle 1 on Days 1, 2, and 3. Pharmacokinetic sampling was performed at Cycle 1 on Day 1 (predose and at 0.5, 1, 2, 4, 6, 9, and 12 hours postdose), Day 2, Day 3, and Day 10 (predose and at 0.5, 1, 2, 4, 6, 9, and 12 hours postdose); then at Cycles 2 and 3 on Day 1 (predose and at 2 hours postdose). […] Tumor assessments were performed by the investigators at screening, every 6 weeks after the first dose of pamiparib in the 1st year, and every 12 weeks thereafter until progression, per RECIST v1.1. Patients completed the study at the time of their safety follow‐up visit; therefore, radiological assessment of disease progression was not performed after the safety follow‐up visit. Descriptive statistics were used to summarize all study data. Continuous variables included the number of non‐missing observations, mean, standard deviation, median, minimum, and maximum. Categorical variables were summarized by their frequency and percentage. Progression‐free survival was estimated using the Kaplan–Meier method and the corresponding 95% confidence interval (CI) was constructed using Greenwood's formula. Standard PK parameters (i.e., area under the plasma concentration‐time curve [AUC] from time of drug administration; maximum plasma concentration [Cmax]; time to Cmax; elimination half‐life [t1/2]; apparent clearance; and apparent volume of distribution during terminal phase) were estimated and derived using standard non‐compartmental methods.

[3] = tested on: patients with advanced solid tumors; conditions: cited from earlier work
[4] = tested on: triple-negative breast cancer (TNBC); assay: Antitumor activity per RECIST v1.1 (best overall response, ORR, CBR, PFS) in patients with TNBC; type: in vivo, human
Method: as §1

[5] = tested on: high-grade ovarian cancer (HGOC); assay: CA-125 response per Gynecologic Cancer Intergroup in patients with HGOC; type: in vivo, human
Method: Among eligible patients with HGOC, carcinoma antigen 125 (CA‐125) response rate per Gynecologic Cancer Intergroup was also assessed. Patients with HGOC had CA‐125 tested in a local laboratory at baseline, every 6 weeks in the 1st year, and then, every 12 weeks thereafter. CA‐125 responses must have been confirmed and maintained for at least 28 days. Germline and tBRCA1/2 mutations were analyzed as predictive biomarkers of antitumor activity and resistance to pamiparib. BRCA mutations were assessed using next‐generation sequencing, performed by BGI Genomics Co., Ltd, using the germline (gBRCA) or somatic (tBRCA) Hereditary Breast and Ovarian Cancer Test. Approximately 14 to 18 evaluable patients were expected to enroll in the phase 1 part of the study. The safety population included all patients who received ≥1 dose of pamiparib. The PK population included all patients for whom valid pamiparib PK parameters could be estimated. Antitumor activity per RECIST v1.1 was assessed in all evaluable patients. […] The population evaluable for CA‐125 response included patients in the safety population with baseline CA‐125 ≥2 x upper limit of normal.

[6] = HGOC (n = 8), RECIST efficacy-evaluable
[7] = HGOC (n = 8), RECIST efficacy-evaluable, 20-60 mg BID
[8] = TNBC (n = 5), RECIST efficacy-evaluable
[9] = TNBC (n = 5), RECIST efficacy-evaluable, 20-60 mg BID
[10] = TNBC (n=6), Kaplan-Meier, NE, not estimable

## C[C@]12CCCN1CC1=NNC(=O)c3cc(F)cc4[nH]c2c1c34 [pamiparib, Pamiparib]
[1]; [6]
  Clinical benefit rate (CR+PR+SD ≥24 weeks): 62.5 % (95% CI) and 62.5 (24.5‐91.5) % (95% CI)
  Disease control rate (CR+PR+SD): 100 % (95% CI) and 100.0 (63.1‐100) % (95% CI)
  Objective response rate (CR+PR): 25.0 (3.2‐65.1) % (95% CI)
[1]; [7]
  Best overall response: Complete response: 0 n (%)
  Best overall response: Progressive disease: 0 n (%)
[1]; HGOC (n=9), Kaplan-Meier
  Event-free rate at 3 months (95% CI): 85.7 (33.41–97.86) %
  Event-free rate at 6 months (95% CI): 68.6 (21.28–91.21) %
  Event-free rate at 9 months (95% CI): 68.6 (21.28–91.21) %
[1]; HGOC (n=9), Kaplan-Meier, NE, not estimable
  Median PFS (95% CI): NE (2.86–NE)
[1]; HGOC (n=9), safety population
  PFS Events: 2 (22.2) n (%)
[1]; RECIST-evaluable HGOC (n = 8)
  Confirmed PR, gBRCA WT patients: 1 n
  Confirmed PR, gBRCA mut patients: 1 n
[1]; one patient with HGOC, 20 mg dose level, PR, treatment ongoing
  Response duration at data cut-off: 27.7 months
[2]; Kaplan-Meier
  Event-free rate at 3 months (95% CI): 50.0 (20.85–73.61) %
  Event-free rate at 6 months (95% CI): 40.0 (13.52–65.73) %
  Event-free rate at 9 months (95% CI): 40.0 (13.52–65.73) %
[2]; Kaplan-Meier, NE, not estimable
  Median PFS (95% CI): 4.2 (1.48–NE) months
[2]; safety population
  PFS Events: 7 (46.7) n (%)
  PFS events: Disease progression: 7 (46.7) n (%)
[3]; FIH study NCT02361723, PO
  Recommended phase 2 dose (RP2D): 60 mg BID
[3]; FIH study NCT02361723
  Linearity of pamiparib exposure: linear up to 80 mg BID
  Maximum tolerated dose (MTD): 80 mg BID
[4]; [8]
  Clinical benefit rate (CR+PR+SD ≥24 weeks): 0 % (95% CI)
  Disease control rate (CR+PR+SD): 0 % (95% CI)
  Objective response rate (CR+PR): 0 % (95% CI)
[4]; [9]
  Best overall response: Complete response: 0 n (%)
  Best overall response: Partial response: 0 n (%)
  Best overall response: Stable disease: 0 n (%)
[4]; TNBC (n=6), Kaplan-Meier
  Median PFS (95% CI): 1.5 (1.45–1.61) months
[4]; [10]
  Event-free rate at 3 months (95% CI): 0 (NE–NE) %
  Event-free rate at 6 months (95% CI): 0 (NE–NE) %
  Event-free rate at 9 months (95% CI): 0 (NE–NE) %
[4]; TNBC (n=6), safety population
  PFS Events: 5 (83.3) n (%)
  PFS events: Disease progression: 5 n (%) and 5 (83.3) n (%)
[5]; HGOC (n=8), CA-125-evaluable population
  CA-125 response rate: 2 (25.0) n (%)
[5]; HGOC, n 2 responders
  Time to response (per CA-125 criteria), Median (range): 1.45 (1.4–1.5) months
